Key:
[1] = ROS-generating activity in cell-free system (H2DCFDA, HRP); type: biochemical; conditions: GSH 0.25 μM or 2.5 μM added to SsnB 10 μM + H2DCFDA + HRP
Experimental: FIG. 2D and FIG. 2E illustrate the ROS generating capacity of SsnB evaluated in a cell-free system containing H2DCFDA (25 μM), horseradish peroxidase (HRP, 5 units/ml), SsnB (10 μM) and glutathione (GSH, 0.25 or 2.5 μM) alone or in various combinations. Optical density (O.D.) at 540 nm were taken at different time points and plotted.
In a reaction system, after the removal of acetate group by cellular esterases and oxidation by reactive oxygen species, the non-fluorescent carboxy-H2DCFDA dye is oxidized to fluorescent molecule carboxy-DCF. To measure the ROS-generating activity of SsnB, the oxidation of carboxy-H2DCFDA dye was monitored in a cell-free system containing carboxy-H2DCFDA dye, horseradish peroxidase (HRP) and SsnB at 540 nm. HRP was used to supply esterase since without esterase carboxy-H2DCFDA is not sensitive to oxidant. […] After addition of HRP (5 units/ml) in the reaction mixture containing SsnB (10 μM)+H2DCFDA dye (25 μM), the OD value increased by 2% in the first 240 sec and further increased by 8% after 15 min compared to H2DCFDA+HRP reaction, indicating the increased oxidation of H2DCFDA to the fluorescent compound.

[2] = tested on: human neuroblastoma cell lines (SH-SY5Y, SKNF-1, NGP, IMR-32 and SK-N-BE(2) cells); assay: MTT cell viability assay; type: cell-based; conditions: NAC 1 mM or 5 mM pretreatment 1 h, then SsnB 10 μM; p<0.05 vs SsnB alone
Description: Human neuroblastoma cell lines (SH-SY5Y, IMR-32, SK-N-BE(2) and SKNF-1 cells) were obtained from The American Type Culture Collection (ATCC; Manassas, Va.), and NGP cells were kind gift from Garrett M. Brodeur (The Children's Hospital of Philadelphia, Philadelphia, Pa.). All cell lines were maintained in complete Dulbecco's Modified Eagle's Medium (DMEM) supplemented with 10% fetal bovine serum (FBS; Atlanta Biologicals, Lawrenceville, Ga.) and 1× antibiotic-antimycotic solution (containing 100 U/ml penicillin, 100 μg/ml streptomycin and 0.25 μg/ml amphotericin B), and grown at 37° C. in a humidified incubator with 5% CO2. Stock solution of SsnB was prepared in dimethyl sulfoxide (DMSO). Cells treated with different concentrations of SsnB in DMEM with 10% FBS were grown for subsequent days. Cells treated with equal volume of DMSO were used as control.
The viability of SsnB-treated cells was determined by MTT assay following manufacturer's instructions (Roche diagnostics corporation, Indianapolis, Ind.). Briefly, cells (1×10^4 cells/well) grown in 96-well cell culture plate were incubated with or without SsnB in 100 μl of complete culture medium with 10% FBS. After treatments, cells were incubated with 10 μl of MTT reagent for 4 h and then incubated overnight in solubilization buffer (100 μl) at 37° C. Absorbance of the formazan product was read at 575 nm in spectramax spectrophotometer (Molecular Devices, Sunnyvale, Calif.). A reference wavelength of 690 nm was used to detect background. The measured absorption directly correlated with the number of viable cells in culture. The experiments were performed in triplicate and repeated at least three times.
MTT assay was carried out to examine the effects of SsnB on viability of all the above listed neuroblastoma cells. After 2 days (SH-SY5Y and IMR-32), 3 days (NGP cells) or 4 days (SKNF-1 and SK-N-BE(2) cells) treatment with SsnB (1, 5, 10 and 20 μM), MTT cell viability assays were performed.

[3] = tested on: reactive oxygen species in neuroblastoma cells; assay: ROS generation, H2DCFDA fluorometry assay; type: cell-based, human; conditions: NAC 1 and 5 mM, SsnB 10 μM; p<0.05 vs SsnB alone
Experimental: The production of reactive oxygen species (ROS) in SsnB-treated neuroblastoma cells was detected by a cell-permeable fluorescence probe H2DCFDA (carboxy-2′,7′-dichlorodihydrofluorescein diacetate) according to the manufacturer's instructions (Invitrogen, Carlsbad, Calif.). Briefly, neuroblastoma cells were cultured in DMEM with 10% FBS in Lab-TekII chamber slides (Fisher Scientific, Pittsburg, Pa.) and treated with SsnB for 2 days (SH-SY5Y and IMR-32 cells), 3 days (NGP cell) or 4 days (SKNF-1 and SK-N-BE(2) cells). After treatments, cells were washed with Hank's buffered salt solution (HBSS; Thermo Scientific, Waltham, Mass.) and incubated with 25 μM of carboxy-H2DCFDA dye for 30 min at 37° C. in dark. Nuclei were counterstained with DAPI. Cells were washed three times with HBSS, mounted with Vectashield mounting medium (Vector Laboratories), and immediately examined under Nikon-E600 fluorescence microscopy equipped with fluorescein isothiocyanate (FITC) filter. Oxidation of H2DCFDA probe occurs almost exclusively in the cytosol, and generates a fluorescence that is proportional to ROS generation in that cell. As a negative control, cells without H2DCFDA dye were used to detect autofluorescence. The fluorometric analysis to detect generation of ROS was performed. Briefly, after treatments with SsnB as mentioned above, cells were labeled with carboxy-H2DCFDA dye (25 μM) for 30 min at 37° C. Cells were trypsinized, washed, and re-suspended in PBS and fluorescence intensity was monitored at excitation wavelength 485 nm and emission wavelength 530 nm with a spectramax spectrophotometer (Molecular Devices, Sunnyvale, Calif.).
SsnB-induced generation of ROS was also evaluated by fluorometry assay. Neuroblastoma cells as treated above were incubated with H2DCFDA dye for 30 min and the fluorescence intensity was measured at 485 nm (excitation wavelength) and 530 nm (emission wavelength).

[4] = tested on: caspase-3 in neuroblastoma cells; assay: Cleaved caspase-3 by immunofluorescence and Western blotting; type: cell-based, human; conditions: NAC 1 and 5 mM pretreatment, SsnB 10 μM; SH-SY5Y and SK-N-BE(2) cells
Experimental: For immunofluorescence staining, cells grown in Lab-TekII chamber slides (Fisher Scientific, Pittsburgh, Pa.) were treated with SsnB in complete culture medium. After treatments, cells were washed with 1×PBS, fixed with 4% paraformaldehyde/PBS for 20 min, and permeabilized with 0.2% Triton X-100/PBS for 10 min at room temperature. Cells were washed with 1×PBS for 3 times and blocked with 5% immunoglobulin (IgG) free-bovine serum albumin (BSA; Jackson ImmunoResearch Laboratories, West Grove, Pa.) in 1×PBS for overnight at 4° C. Cells were incubated with antibody raised against active form of caspase-3 (Cell Signaling Technology, Danvers, Mass.) diluted in 2.5% BSA/PBS for overnight at 4° C. Primary antibodies were detected with secondary antibodies conjugated with fluorescein isothiocyanate (FITC; Santa Cruz Biotechnology, Dallas, Tex.) for 2 h at room temperature. After washing with 1×PBS, cells were mounted with antifade Vectashield mounting media (Vector Laboratories, Burlingame, Calif.), and signals were visualized under Nikon-E600 fluorescence microscope. Nuclei were counterstained with 4′,6-diamidino-2-phenylindole (DAPI; Sigma).
After treatment with SsnB, cells were collected, washed with 1×PBS, and lysed with 1× cell lysis buffer (Cell Signaling Technology, Danvers, Mass.) containing phenylmethylsulfonyl fluoride (PMSF) and protease inhibitors (aprotinin and leupeptin) for 30 min on ice, and centrifuged at 12000×rpm for 10 min at 4° C. Supernatant (total cell protein) was collected and stored at −80° C. Protein concentration was determined by bicinchoninic acid method using BCA protein assay kit (Pierce/ThermoScientific, Waltham, Mass.). Equal amount of proteins were diluted with 5× Laemmli samples loading buffer and boiled for five minutes. The proteins were subjected to sodium dodecyl sulfate (SDS)-polyacrylamide gel electrophoresis and analyzed by Western blots. Briefly, after electrophoresis, proteins were transferred on polyvinylidene difluoride (PVDF) membrane at 100 volt for 3 h in cold room. Membrane was blocked with 5% non-fat dry milk/TBST (20 mM Tris-Cl, pH 7.4; 150 mM NaCl with 0.1% Tween-20) for 4 h at room temperature followed by incubation in primary antibodies diluted in 2.5% non-fat dry milk/TBST for overnight at 4° C. After washing with TBST, membrane was incubated with secondary antibodies (horseradish peroxidase-conjugated goat anti-rabbit or goat anti-mouse IgG; Santa Cruz Biotechnology, Dallas, Tex.) diluted in 2.5% non-fat dry milk/TBST for 3 h at room temperature. Signals were detected by chemiluminiscence detection kit (Pierce/Thermo Fisher Scientific, Rockford, Ill.). Primary antibodies used were cleaved caspase-3 and β-actin (Cell Signaling Technology), N-myc and p53 (Santa Cruz Biotechnology).
At cellular level, mitochondria- or receptor (Fas/FasL)-mediated pathways activate caspase signaling cascade which in turn induces DNA damage and initiates programmed cell death (apoptosis). To determine whether SsnB-induced cell death is mediated by caspase activation, Western blotting as well as immunofluorescence assay were performed to detect the active form of caspase-3 in neuroblastoma cells treated with SsnB for 2 days (SH-SY5Y and IMR-32 cells), 3 days (NGP cells) or 4 days (SKNF-1 and SK-N-BE(2) cells). The number of cleaved caspase-3 positive cells were quantitated by ImageJ programme and plotted. […]

SMILES | OD value on addition of GSH [1] | viability of SsnB-treated cells [2] | ROS levels in SsnB-treated cells [3] | activation of caspase-3 in SsnB-treated cells [4]
N[C@@H](CCC(=O)N[C@@H](CS)C(=O)NCC(=O)O)C(=O)O [GSH, glutathione, reference compound] | lowers the OD value in a dose dependent manner | – | – | –
CC(=O)NCCSSCCN [NAC, N-acetylcystamine, reference compound] | – | significantly increased the viability | significantly reduced ROS levels | inhibited the activation of caspase-3

— patent US9446019B2, “Sparstolonin B based pharmaceutical agent for neuroblastoma treatment” (University of South Carolina, priority 2013, dated 2016)
